Assay results reported in patent US7012099B2, “Use of substituted 4-amino-1-phenylbutan-2-ol compounds as medicaments” (Gruenenthal GmbH, priority 1999, dated 2006).
Counter-ions that a name gives are not always drawn.

Target: T1, ORL1 receptor (Homo sapiens, UniProt P41146)
T1 construct: expressed in transfected cells; host or cells: CHO (recombinant CHO-ORL1 cells), membranes
Assay: ORL1 receptor binding assay using 3H-nociceptin/orphanin FQ with membranes of recombinant CHO-ORL1 cells
Conditions: 3H-nociceptin/orphanin FQ 0.5 nM, WGA-SPA beads, one hour at room temperature
Procedure: The 4-amino-1-phenylbutan-2-ol compounds of the general formula I have been studied in a receptor binding assay using ^3H-nociceptin/orphanin FQ with membranes of recombinant CHO-ORL1 cells. That test system was carried out according to the method put forward by Ardati et al. (Mol. Pharmacol., 51, 1997, p. 816–824). The concentration of ^3H-nociceptin/orphanin FQ in those tests was 0.5 nM. The binding assays were carried out using in each case 20 μg of membrane protein per 200 μl batch in 50 mM Hepes, pH 7.4, 10 mM MgCl2 and 1 mM EDTA. Binding to the ORL1 receptor was determined using in each case 1 mg of WGA-SPA beads (Amersham-Pharmacia, Freiburg) by incubation of the batch for one hour at room temperature and subsequent measurement in a Trilux scintillation counter (Wallac, Finland). The affinity is given as the Ki value.
For each of the compounds of Examples 1 to 7, the affinity for the ORL1 receptor was determined according to the mentioned molecular-pharmacological investigations.

T1 sequence (P41146 whole entry): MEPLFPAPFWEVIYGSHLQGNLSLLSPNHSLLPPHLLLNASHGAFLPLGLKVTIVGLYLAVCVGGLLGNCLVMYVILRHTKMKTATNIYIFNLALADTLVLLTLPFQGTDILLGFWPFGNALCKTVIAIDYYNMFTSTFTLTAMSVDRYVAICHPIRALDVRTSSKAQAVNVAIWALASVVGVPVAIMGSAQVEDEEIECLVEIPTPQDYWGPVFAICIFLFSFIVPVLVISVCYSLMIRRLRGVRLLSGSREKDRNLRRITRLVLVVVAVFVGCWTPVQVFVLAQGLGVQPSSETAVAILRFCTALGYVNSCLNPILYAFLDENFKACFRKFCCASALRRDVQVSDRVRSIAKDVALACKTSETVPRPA

Question: Which Ki does the source give for `CN(C)C(c1ccccc1)C1CCCCC1(O)Cc1ccccc1Cl` (stereo not shown) [Example 1, 1-(2-Chlorobenzyl)-2-(dimethylaminophenylmethyl)cyclohexanol hydrochloride] here?
Answer: 6000 nM

Question: With `CN(C)C(c1ccccc1)C1CCCCC1(O)Cc1cccc(Cl)c1` (stereo not shown) [Example 2, 1-(3-chlorobenzyl)-2-(dimethylaminophenylmethyl)cyclohexanol hydrochloride] as the compound, how does the Ki read?
Answer: 2100 nM

Question: `CN(C)C(c1ccccc1)C1CCCCC1(O)Cc1ccc(Cl)cc1` (stereo not shown) [Example 3, 1-(4-chlorobenzyl)-2-(dimethylaminophenylmethyl)-1-cyclohexanol hydrochloride] was tested. Which Ki did it give?
Answer: 1700 nM

Question: For `CN(C)C(c1ccccc1)C1CCCCC1(O)Cc1ccc(F)c(F)c1` (stereo not shown) [Example 4, 1-(3,4-difluorobenzyl)-2-(dimethylaminophenylmethyl)cyclohexanol hydrochloride], which Ki is on record?
Answer: 1900 nM

Question: How did the Ki turn out when `CN(C)C(c1ccccc1)C1CCCCC1(O)Cc1cccc(C(F)(F)F)c1` (stereo not shown) [Example 5, 2-(dimethylaminophenylmethyl)-1-(3-trifluoromethylbenzyl)cyclohexanol hydrochloride] was run?
Answer: 900 nM

Question: For `CN(C)C(c1cccs1)C1CCCCC1(O)Cc1cccc(C(F)(F)F)c1` (stereo not shown) [Example 6, 2-(dimethylaminothiophen-2-ylmethyl)-1-(3-trifluoromethylbenzyl)cyclohexanol Hydrochloride], which Ki is on record?
Answer: 600 nM

Question: `CN(C)C(c1ccsc1)C1CCCCC1(O)Cc1cccc(C(F)(F)F)c1` (stereo not shown) [Example 7, 2-(dimethylaminothiophen-3-ylmethyl)-1-(3-trifluoromethylbenzyl)cyclohexanol hydrochloride] was tested. Which Ki did it give?
Answer: 330 nM
